“Also recorded” adds a separate entry of the source.
Assays:
[1] = test system: ephrinB2a, ephB4 and flt4; test: In situ hybridization for arterial and venous markers; type: in vivo, zebrafish; settings: 10 μM from 10 hpf, fixed at 24 hpf
Procedure: Untreated control embryos (A, C, E and A′, C′, E′) and embryos treated with 10 μM aplexone beginning at 10 hpf (B, D, F and B′, D′, F′) were fixed at 24 hpf. Arterial and venous fates were analyzed by in situ hybridization using ephrinB2a (A,A′,B,B′), ephB4 (C,C′,D,D′) and flt4 (E,E′,F,F′) probes. Arrowhead, dorsal aorta. Embryos were analyzed at higher magnification in the trunk in A′-F′, with regions of interest indicated by black boxes in A-F. Arrow, posterior cardinal vein.
To understand whether angiogenesis from arterial and venous ECs are under different genetic controls we screened a collection of small molecules for compounds that preferentially suppress angiogenesis from exclusively one cell type. In this screen, we used the primary ISV sprouts as the readout for arterial-derived angiogenesis, and the CVP and secondary ISV sprouts as indicators of venous-derived angiogenesis. We found one synthetic compound, aplexone, which has a lineage-dependent effect on angiogenesis. The spatial and temporal development of primary ISVs in the trunk is indistinguishable between 2-day-old control and aplexone-treated embryos (FIG. 1L-M′). […] Secondary ISVs are also absent in these embryos (FIG. 1L-M′).

[2] = test system: caudal vein endothelial cells; test: Caudal vein endothelial cell migration, time-lapse confocal imaging; type: in vivo, zebrafish; settings: 10 μM aplexone
Procedure: A-B, Representative images of the caudal vein of control (A) and 10 μM aplexone-treated embryos (B) at 30 hpf. Images were overlaid with the endothelial cell migration path inferred from time-lapse confocal movies taken from 25 hpf to 30 hpf. The migration of caudal vein endothelial cells was traced using the Manual Tracking feature of ImageJ and the positions of ISV sprouting points were used as references to adjust for the growth of embryos. C, The distance of endothelial cell migration in caudal vein of control and aplexone-treated Tg(kdrl:GFP) embryos. Asterisk indicates p<0.05. (D) The window of application of aplexone. Grey bars represent the developmental stages during which Tg(kdrl:GFP) embryos were exposed to 10 μM aplexone and the caudal vein phenotype was analyzed at 48 hpf. […] A “−” indicates the formation of normal caudal vein plexus.
Images of GFP expression in Tg(kdrl:GFP) embryos were acquired using a Zeiss SV-11 epifluorescence microscope. Confocal images were acquired using a Carl Zeiss Laser Scanning Systems LSM510 equipped with 20× air, 20× water or 40× water immersion objectives. For single time point confocal images, embryos were anesthetized with 0.01% tricaine and embedded in 1% agarose. […] The images obtained were analyzed using the Zeiss LSM Image Brower version 4 and Image J. […]

HMGCR pathway = test: Cholesterol assay in embryo lysate (Amplex Red); type: in vivo, zebrafish
Procedure: The yolk was removed from embryos by vortexing in calcium-free Ringer's solution with 1 mM EDTA at 4° C. The embryos were then pelleted and washed with fresh calcium free Ringer's solution 5 times before being resuspended in cholesterol assay reaction buffer and were then lysed by sonication using a Sonifier 450 (Branson). Cholesterol levels in the embryo lysate were measured with an Amplex Red Cholesterol Assay Kit (Invitrogen) and Flex station II (Bucher Biotec). The total protein concentration of the embryo lysate was measured using a DC protein assay (Bio-Rad Laboratories) and SpectraMax plus (Molecular Devices).

mCherry-RhoCLVL = test: Localization of chimeric protein mCherry-RhoCLVL (geranylgeranylation); type: in vivo, zebrafish; settings: 10 μM aplexone, 80% epiboly
Procedure: mCherry-RhoCLVL was generated by PCR amplification of mCherry from pmCherry-N3 (a generous gift from S. Walsh) using primers containing sequences coding for the C-terminal 20 amino acid residues of human RhoA. mCherry-RasCVLS was amplified from pME-mCherryCAAX (a generous gift from C.-B. Chien). The PCR products were sub-cloned into pcGlobin2 (Ro et al., 2004) and mRNA was synthesized using the mMESSAGE mMACHINE kit (Ambion). Zebrafish embryos were injected with 250 pg of mCherry-RhoCLVL and mCherry-RasCVLS mRNA at 1-cell stage, and raised with or without the presence of 10 μM aplexone at 25° C. and fixed at 80% epiboly. Cellular localizations of the mCherry chimeras were analyzed with confocal microscopy.

HUAECs = test: Wound healing assay, HUAECs; type: cell-based, human
Procedure: HUVECs and HUAECs were purchased from VEC Technologies. Cells were cultured on 0.1% Gelatin-coated dishes in Medium 199 (Mediatech), supplemented with 15% Fetal Bovine Serum (ATCC), 48 μg/mL Endothelial Cell Growth Supplement (BD Biosciences), 64 μg/mL Heparin Sulfate (Sigma-Aldrich), 0.9 mM Sodium Pyruvate (Mediatech), 100 IU/ml Penicillin (Mediatech), and 100 μg/ml Streptomycin (Mediatech).
For the wound healing assay, cells were cultured in 24-well plates to confluence before being subjected to a 2-hour pre-treatment with either DMSO, aplexone, Rockout (Calbiochem) or NSC 23766 (TOCRIS Bioscience). After the pre-treatment, the monolayer of endothelial cells was scratched and the closure of the wound was measured after 8 hr. The images of wounds were taken at 0 and 8 hr after scratching and the area of the wound was measured using Image J. The migration distance (the width of the wound) was calculated by dividing the area by the length of the wound. Cells below passage seven were used in this study.

## CC(=O)C1=CCC(c2ccccc2)N(S(=O)(=O)c2ccc(C)cc2)C1 (stereo not drawn) [aplexone]
[1]
  arterial (ephrin B2a) and venous (flt4, ephB4) marker expression: could not distinguish aplexone-treated embryos from control embryos
[2]
  maturation of caudal vein EC filopodia into angiogenic sprouts: never matured into angiogenic sprouts
[2]; between 25 hpf and 30 hpf
  average EC migration distance during CVP formation: 35 μm
HMGCR pathway; higher concentration (40 uL)
  efficiency of cholesterol reduction compared with atorvastatin: more efficient
HMGCR pathway; lower concentration (10 uL)
  efficiency of cholesterol reduction compared with atorvastatin: as efficient as atorvastatin
HMGCR pathway; relative to 0.4% DMSO control
  embryonic cholesterol levels: reduced embryonic cholesterol levels to a comparable degree as treatment with atorvastatin; also recorded: reduce cholesterol level significantly
mCherry-RhoCLVL
  subcellular localization of mCherry-rhoCAAX (CLVL) chimeric protein: no longer localized predominantly to the membrane; also recorded: mis-localized to the nucleus and cytoplasm
HUAECs; 5 μM aplexone, 8 hr
  HUAEC migration: unaffected
HUAECs; 10 μM aplexone, p<0.05
  impediment in HUAEC migration: 10%
